The record followed here is patent US20080045559A1, “TOCOPHEROL-MODIFIED THERAPEUTIC DRUG COMPOUNDS” (SONUS PHARMACEUTICALS, INC., priority 2003, published 2008).

What all share (assay): In vitro cytotoxicity GI50, Example 48
Common to all, as to assay type: cell-based

In one test the test system is HT-29 (COLON). As to conditions: Homo sapiens, Alamar Blue or Sulfarhodamine B. Background: Alamar Blue is a resazurin reagent that responds to reducing activity.
For a further test, the system named is HCT-116 (COLON). As to conditions: Homo sapiens, HCT-116, HCT-116; Alamar Blue or Sulfarhodamine B. As to the method:
The study was performed using either Alamar Blue or Sulfarhodamine B assays.

The next test relates to H460 (NSCLC). As to conditions: Homo sapiens, NCI-H460; H460; Alamar Blue or Sulfarhodamine B; read-out: GI50.
The test system of a further test is HCT-15 (COLON). Particulars: Homo sapiens, Alamar Blue or Sulfarhodamine B.
A further test has as its system SKOV-3 (OVARIAN). Particulars: Homo sapiens, SK-OV-3, Alamar Blue or Sulfarhodamine B.

For the compound `CCc1c2c(nc3ccc(OC(=O)CC4(CC(=O)Oc5c(C)c(C)c6c(c5C)CC[C@@](C)(CCC[C@H](C)CCC[C@H](C)CCCC(C)C)O6)CCCC4)cc13)-c1cc3c(c(=O)n1C2)COC(=O)[C@]3(O)CC` [d-α-Tocopherol-3,3-tetramethyleneglutarate-7-ethyl-10-hydroxycamptothecin], the GI50 (in general, the concentration that inhibits growth by half) came out at 48 nM with HT-29 (COLON), 214 nM with HCT-116 (COLON) and 560 nM in the test with H460 (NSCLC).
Take `CC[C@@]1(O)C(=O)OCc2c1cc1n(c2=O)Cc2cc3cc(OC(=O)CCC(=O)Oc4c(C)c(C)c5c(c4C)CC[C@@](C)(CCC[C@H](C)CCC[C@H](C)CCCC(C)C)O5)ccc3nc2-1` [VESA-10-HO-CPT, Butanedioic acid, (2R)-3,4-dihydro-2,5,7,8-tetramethyl-2-[(4R,8R)-4,8,12-trimethyltridecyl]-2H-1-benzopyran-6-yl (4S)-4-ethyl-3,4,12,14-tetrahydro-4-hydroxy-3,14-dioxo-1H-pyrano[3′,4′:6,7]indolizino[1,2-b]quinolin-9-yl ester]: the GI50 in the test with HCT-116 (COLON) stood at 186 nM; in the test on HCT-15 (COLON), 1290 nM; in the test on SKOV-3 (OVARIAN) it was 97.7 nM; with H460 (NSCLC), 155 nM.
